Reference: US20090062351A1, “Benzoyl amino pyridyl carboxylic acid derivatives useful as glucokinase (glk) activators” (priority 2003, published 2009)
pEC50: −log10 of the molar value.

What was measured:
[1] = Plasma levels following oral administration to rats; type: in vivo; conditions: rat, including both bound and free, normalised dose of 1 mg compound per kilogram body weight
Procedure: Planetary Milled compounds [15 mins, 500 rpm, 5 Zirconium Balls, in a Puluerisette 7 Mill (Glen Creston Ltd, Stanmore, Middlesex, UK)] were suspended in 0.5% HPMC Tween and dosed to High Fat Fed (Research Diets, D12451, ad lib feeding 14 days) Female Alderley Park Zucker or Alderley Park Wistar rats at rate of 5 mls/kg, at doses between 0.3 and 10 mg/kg by oral gavage.
Samples of plasma were obtained either by conscious blood sampling or terminal blood sampling as follows:
Conscious blood sampling (for compound level or blood chemistry)—Intravenous blood samples were taken from tail vein using 600 μl Starstedt Multivette (EDTA) and 22 G needle at the required time point. […]
The reconstituted samples were then analysed using high performance liquid chromatography with tandem mass spectrometry detection (HPLC-MS-MS)”. […]
The concentration of test samples was determined from the ratio of the peak height of the test sample to the peak height of the internal standard. The concentration of the test sample was calculated with reference to a standard curve relating the ratio to the concentration prepared by using known concentrations of test sample added to samples of rat plasma using (3-isopropoxy-5-benzyoxy-benzoyl)amino pyridine 3-carboxylic acid as an internal standard, treated as described above.

glucokinase (GLK) = biological target: T1, glucokinase (GLK) (Homo sapiens, UniProt P35557); test: biochemical
T1 sequence (P35557 1-466 isoform P35557-2): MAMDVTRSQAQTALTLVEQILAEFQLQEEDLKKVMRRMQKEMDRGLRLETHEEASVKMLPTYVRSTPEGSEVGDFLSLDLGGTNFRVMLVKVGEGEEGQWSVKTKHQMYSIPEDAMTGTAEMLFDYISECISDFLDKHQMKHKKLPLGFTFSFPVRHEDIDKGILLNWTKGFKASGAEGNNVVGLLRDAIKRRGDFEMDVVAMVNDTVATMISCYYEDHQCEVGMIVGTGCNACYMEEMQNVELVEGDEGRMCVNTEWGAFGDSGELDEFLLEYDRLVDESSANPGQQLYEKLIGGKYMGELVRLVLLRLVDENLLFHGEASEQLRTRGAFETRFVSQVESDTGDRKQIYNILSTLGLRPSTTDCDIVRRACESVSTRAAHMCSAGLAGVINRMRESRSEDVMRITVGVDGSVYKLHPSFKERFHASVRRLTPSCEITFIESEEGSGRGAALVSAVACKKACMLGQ

[2] = Plasma protein binding by equilibrium dialysis; type: in vitro ADME; conditions: rat, 37° C., pH 7.4, read-out: % free in plasma
Procedure: The plasma protein binding of compounds was measured using the equilibrium dialysis technique (W. Lindner et al, J. Chromatography, 1996, 677, 1-28). Compound was dialysed at a concentration of 20 μM for 18 hours at 37° C. with plasma and isotonic phosphate buffer pH 7.4 (1 ml of each in the dialysis cell). A Spectrum® 20-cell equilibrium dialyser was used together with Teflon, semi-micro dialysis cells and Spectra/Por®2 membrane discs with a molecular weight cut off 12-14000 Dalton, 47 mm (supplied by PerBio Science UK Ltd, Tattenhall, Cheshire). Plasma and buffer samples are removed following dialysis and analysed using HPLCUV/MS (high performance liquid chromatography with UV and mass spec detection) to give the % free level in plasma.

SMILES: COC[C@H](C)Oc1cc(OCC=C2CCCC2)cc(C(=O)Nc2ccc(C(=O)O)cn2)c1 [Example 2, 6-{[(3-[(2-cyclopentylideneethyl)oxy]-5-{[(1S)-1-methyl-2-(methyloxy)ethyl]oxy}phenyl)carbonyl]amino}pyridine-3-carboxylic acid]
- Peak Blood levels [1]: 2.2 µM
- pEC50 (glucokinase (GLK)): 7.11
- fraction unbound at 18 h, 20 μM [2]: 0.0042
